Literature values as cited in patent US20190105278A1, “SHELLAC MICROCAPSULE FORMULATIONS AND COMPOSITIONS” (CONARIS RESEARCH INSTITUTE AG, priority 2016, published 2019).

Conditions: EFSA; for acceptable daily intake (ADI): preparations with at least 90% purity

| Compound | upper systemic intake limit [mg/kg] | acceptable daily intake (ADI) [mg/kg body weight] |
| --- | --- | --- |
| CC(=O)Nc1ccc(S(=O)(=O)[O-])c2cc(S(=O)(=O)[O-])c(N=Nc3ccc(N=Nc4ccc(S(=O)(=O)[O-])cc4)c4ccc(S(=O)(=O)[O-])cc34)c(O)c12.[Na+].[Na+].[Na+].[Na+] [brilliant black BN] | 5 | 5 |
| O=C1/C(=C2\Nc3ccc(S(=O)(=O)[O-])cc3C2=O)Nc2ccc(S(=O)(=O)[O-])cc21.[Na+].[Na+] [indigo carmine] |  | 5 |
| CCN(CC)c1ccc(C(=C2C=CC(=[N+](CC)CC)C=C2)c2cc(O)c(S(=O)(=O)[O-])cc2S(=O)(=O)[O-])cc1.CCN(CC)c1ccc(C(=C2C=CC(=[N+](CC)CC)C=C2)c2cc(O)c(S(=O)(=O)[O-])cc2S(=O)(=O)[O-])cc1.[Ca+2] [patent blue V] | 5 | 5 |
